Read-outs that look alike come from different tables or passages of the source.
Target: T1, hASIC1a (Homo sapiens, UniProt P78348)
T1 sequence (P78348 1-528): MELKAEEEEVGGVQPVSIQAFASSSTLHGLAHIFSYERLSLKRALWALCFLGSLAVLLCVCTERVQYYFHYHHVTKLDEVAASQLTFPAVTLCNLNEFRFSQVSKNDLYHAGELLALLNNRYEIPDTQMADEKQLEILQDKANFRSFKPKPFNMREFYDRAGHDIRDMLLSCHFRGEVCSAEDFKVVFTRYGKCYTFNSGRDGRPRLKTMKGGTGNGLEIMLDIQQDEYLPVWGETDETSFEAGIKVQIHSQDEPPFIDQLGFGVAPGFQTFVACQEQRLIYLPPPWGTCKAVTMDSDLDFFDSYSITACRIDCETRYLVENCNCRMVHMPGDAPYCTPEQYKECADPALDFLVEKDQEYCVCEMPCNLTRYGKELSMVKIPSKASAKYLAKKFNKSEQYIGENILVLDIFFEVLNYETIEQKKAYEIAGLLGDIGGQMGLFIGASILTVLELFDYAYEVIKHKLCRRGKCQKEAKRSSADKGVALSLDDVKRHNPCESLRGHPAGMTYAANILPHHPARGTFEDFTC
Assay: FlexStation/FLIPR calcium-imaging assay, acid (MES)-induced response in ASIC1a expressing cells
Format: cell-based
Design: expressed in transfected cells
Procedure: Identification of ASIC Antagonists Using Calcium-Imaging
ASIC1a expressing HEK293 or CHO cells are grown in culture medium (DMEM with 10% FBS), in polystyrene culture flasks ([…]) at 37° C. in a humidified atmosphere of 5% CO2. Confluency of cells should be 80-90% on day of plating. Cells are rinsed with 10 ml of PBS and re-suspended by addition of culture medium and trituration with a 25 ml pipette.
The cells are seeded at a density of approximately 1×10^5 cells/ml for HEK293 and 8×10^4 for CHO cells (100 μl/well) in black-walled, clear bottom, poly-D-lysin pre-treated 96-well plates. Plated cells were allowed to proliferate for 48 h before loading with dye.
Fluo-4/AM (1 mg, Molecular Probes) is dissolved in 912 μl DMSO. The Fluo-4/AM stock solution (1 mM) is diluted with culture medium to a final concentration of 2 μM (loading solution).
The culture medium is aspirated from the wells, and 80 μl of the Fluo-4/AM loading solution is added to each well. The cells are incubated at 37° C. for 30 min. When CHO cells are used, probenicid at 2.5 mM (final concentration) is added in the loading solution.
After the loading period (15-20 min., the loading solution is aspirated and the cells are washed twice with 100 μl modified Assay Buffer (145 mM NaCl, 5 mM KCl, 5 mM CaCl2, 1 mM MgCl2, 10 mM HEPES, pH 7.4) to remove extracellular dye. Following the second wash, 100 μl modified Assay Buffer is added to each well and the fluorescence is measured in FLIPR™ or FlexStation™ (Molecular Devices, USA), or any other suitable equipment known to the skilled in the art. When CHO cells are used, probenicid at 2.5 mM (final concentration) is added in the wash buffer.
First addition: 50 μl test solution at a rate of 26 μl/sec and a starting height of 125 μl
Second addition: 50 μl MES solution (20 mM, 5 mM final concentration) at a rate of 26 μl/sec and a starting height of 115 μl.
Reading intervals: pre-incubation—120 sec. antagonist phase, addition of MES at 145 sec. and reading time with agonist 100 sec (total run time of 240 sec).
Fluorescence obtained after stimulation is corrected for the mean basal fluorescence (in modified Assay Buffer).
The MES-induced peak calcium response (or change in membrane potential), in the presence of test substance, is expressed relative to the MES response alone. Test substances that block the MES-induced calcium response (or change in membrane potential) are re-tested in triplicates. Confirmed hits are picked for further characterization by performing full dose-response curves to determine potency of each hit compound as represented by the IC50 values (i.e., the concentration of the test substance which inhibits 50% of the MES-induced calcium and/or membrane potentiation response; see, for example, FIG. 1).

[1] = calcium mobilization assay, HEK293, n=3-7, read-out: FPAT-ASIC1a human/HEK293/k21 IC50

IC50 (FlexStation (Flex), Tables A-F, read-out: Biological Data (IC50 uM) h1a (Flex)) [µM] | inhibitory effect on acid-induced hASIC1a activity (FIG. 1) (HEK-293 transiently expressing hASIC1a, intracellular calcium, increasing concentrations) | IC50 [1] [µM] | SMILES
15 to 25 | dose-dependently inhibited |  | Cc1cc(OC2CCN(Cc3ccccc3)CC2)c2ccccc2n1 [Compound R, 4-(1-benzyl-piperidin-4-yloxy)-2-methyl-quinoline]
 |  | < 10 | Fc1cccc2c(OC3CCN(Cc4ccccc4)CC3)cc(C(F)(F)F)nc12 [Compound B, 4-(1-benzyl-piperidin-4-yloxy)-8-fluoro-2-trifluoromethyl-quinoline]
 |  | < 10 | COc1ccc(C(=O)CN2CCN(c3cc(C)nc4ccccc34)CC2)cc1 [Compound A, 1-(4-methoxy-phenyl)-2-[4-(2-methyl-quinolin-4-yl)-piperazin-1-yl]-ethanone]

Source: patent US20070197509A1, “Compositions and methods for modulating gated ion channels” (PainCeptor Pharma Corporation, priority 2005, published 2007)
